Source: patent US20260022142A1, “MACROCYCLIC IMMUNOMODULATORS” (Bristol-Myers Squibb Company, priority 2022, published 2026)
Bridge positions count the residues as written; N and C are the ends. Square brackets hold non-standard residues; d marks the D form. Peptide text beside a SMILES is read from it. * marks the point of attachment. ξ: configuration not given here. Phe(4-CONH2) = NC(=O)c1ccc(C[C@H](N)C(=O)O)cc1; Bip = N[C@@H](Cc1ccc(-c2ccccc2)cc1)C(=O)O; Phe(4-NH2) = Nc1ccc(C[C@H](N)C(=O)O)cc1; Phe(3-Me) = Cc1cccc(C[C@H](N)C(=O)O)c1; Val(3-OH) = CC(C)(O)[C@H](N)C(=O)O; hArg = N=C(N)NCCCC[C@H](N)C(=O)O; Cha = N[C@@H](CC1CCCCC1)C(=O)O; Cit = NC(=O)NCCC[C@H](N)C(=O)O; aThr = C[C@H](O)[C@H](N)C(=O)O; Thr(3ξ) = CC(O)[C@H](N)C(=O)O; NMeNle = CCCC[C@H](NC)C(=O)O; Dap(Me) = CNC[C@H](N)C(=O)O; 12Ado = NCCCCCCCCCCCC(=O)O; Carboxymethyl = O=C(O)C*; Orn = NCCC[C@H](N)C(=O)O; Aun = NCCCCCCCCCCC(=O)O; Dab = NCC[C@H](N)C(=O)O; Dap = NC[C@H](N)C(=O)O; Piv = CC(C)(C)C(=O)*

Each compound was assayed against T1, PD-1/PD-L1 interaction (PE-labeled human PD-L1-Ig binding to Jurkat cell line over-expressing human PD-1) (Homo sapiens, UniProt Q15116) (assay: Jurkat-PD-1 Cell Binding High-Content Screening Assay (CBA)). Conditions: Jurkat cell line over-expressing human PD-1; PE-labeled PD-L1-Ig 20 nM final; read-out: Jurkat hPD1-PDL1 IC50.
T1 construct: expressed in transfected cells; host or cells: Jurkat
Format: cell-based
How it was run: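 First, compound is added to PD-1-expressing Jurkat cells in serum-containing DMEM and left 2 h at 37° C. Next, PE-conjugated PD-L1-Ig is introduced at 20 nM final concentration for 1 hour. Finally, cells are fixed in 4% paraformaldehyde with Hoechst 33342, washed and imaged.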

T1 sequence (Q15116 25-288): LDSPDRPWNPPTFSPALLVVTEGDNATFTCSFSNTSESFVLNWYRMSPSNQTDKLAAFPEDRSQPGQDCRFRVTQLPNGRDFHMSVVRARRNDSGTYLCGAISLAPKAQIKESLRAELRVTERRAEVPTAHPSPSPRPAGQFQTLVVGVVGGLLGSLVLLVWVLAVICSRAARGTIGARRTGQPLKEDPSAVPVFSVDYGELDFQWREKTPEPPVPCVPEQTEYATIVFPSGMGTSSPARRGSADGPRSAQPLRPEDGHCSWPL

Going from `CC(=O)NCCCC[C@@H]1NC(=O)[C@H](Cc2ccc(-c3ccccc3)cc2)NC(=O)[C@H](C(C)C)NC(=O)[C@H](Cc2cccc(C)c2)NC(=O)[C@H](CC(=O)O)NC(=O)[C@H](Cc2ccc(OCC(=O)O)cc2)NC(=O)[C@H](CN)NC(=O)CSC[C@@H](C(=O)N[C@@H](CCN)C(=O)N[C@@H](CO)C(=O)NCCCCCCCCCCCC(=O)O)NC(=O)[C@H](CCCN)NC(=O)[C@H](C(C)C)NC(=O)[C@H](CC2CCCCC2)NC(=O)[C@H](CCN)NC(=O)[C@@H](CC(C)C)NC(=O)[C@H](CCCN)NC1=O` [Compound 3590] ({CH2CO}-[Dap]Y(Carboxymethyl)D[Phe(3-Me)]V[Bip]K(Ac)[Orn][dL][Dab][Cha]V[Orn]C[Dab]S[12Ado]-OH; thioether N-14) to `CNC[C@@H]1NC(=O)CSC[C@@H](C(=O)N[C@@H](CCN)C(=O)NCCCCCCCCCCC(=O)O)NC(=O)[C@H](C(C)O)NC(=O)[C@H](C(C)C)NC(=O)[C@H](CC2CCCCC2)NC(=O)[C@H](CCN)NC(=O)[C@@H](CC(C)C)NC(=O)[C@H](CCCN)NC(=O)[C@H](CCCCNC(C)=O)NC(=O)[C@H](Cc2ccc(-c3ccccc3)cc2)NC(=O)[C@H](CCCCNC(C)=O)NC(=O)[C@H](Cc2cccc(C)c2)NC(=O)[C@H](CC(=O)O)NC(=O)[C@H](Cc2ccc(OCC(=O)O)cc2)NC1=O` (stereo partly drawn) [Compound 3594] ({CH2CO}-[Dap(Me)]Y(Carboxymethyl)D[Phe(3-Me)]K(Ac)[Bip]K(Ac)[Orn][dL][Dab][Cha]V[Thr(3ξ)]C[Dab][Aun]-OH; thioether N-14), the IC50 rises from 6.5 nM to 16.2 nM (2.5-fold). The first is the more potent here.

Going from `Cc1cccc(C[C@@H]2NC(=O)[C@H](CC(=O)O)NC(=O)[C@H](Cc3ccc(OCC(=O)O)cc3)NC(=O)[C@H](CCCCNC(=N)N)NC(=O)CSC[C@@H](C(=O)N[C@@H](CCCN)C(=O)N[C@@H](CO)C(=O)NCCCCCCCCCCCC(=O)O)NC(=O)[C@H](CO)NC(=O)[C@H](C(C)O)NC(=O)[C@H](CC3CCCCC3)NC(=O)[C@H](CCN)NC(=O)[C@@H](CC(C)C)NC(=O)[C@H](CCCN)NC(=O)[C@H](CCCNC(N)=O)NC(=O)[C@H](Cc3ccc(-c4ccccc4)cc3)NC(=O)[C@H](C(C)C)NC2=O)c1` (stereo partly drawn) [Compound 3591] ({CH2CO}-[hArg]Y(Carboxymethyl)D[Phe(3-Me)]V[Bip][Cit][Orn][dL][Dab][Cha][Thr(3ξ)]SC[Orn]S[12Ado]-OH; thioether N-14) to `Cc1cccc(C[C@@H]2NC(=O)[C@H](CC(=O)O)NC(=O)[C@H](Cc3ccc(OCC(=O)O)cc3)NC(=O)[C@H](CN)NC(=O)CSC[C@@H](C(=O)N[C@@H](CCN)C(=O)NCCCCCCCCCCC(=O)O)NC(=O)[C@H](C(C)O)NC(=O)[C@H](C(C)C)NC(=O)[C@H](CC3CCCCC3)NC(=O)[C@H](CCN)NC(=O)[C@@H](CC(C)C)NC(=O)[C@H](CCCN)NC(=O)[C@H](CCCNC(N)=O)NC(=O)[C@H](Cc3ccc(-c4ccccc4)cc3)NC(=O)[C@H](CCCNC(N)=O)NC2=O)c1` (stereo partly drawn) [Compound 3593] ({CH2CO}-[Dap]Y(Carboxymethyl)D[Phe(3-Me)][Cit][Bip][Cit][Orn][dL][Dab][Cha]V[Thr(3ξ)]C[Dab][Aun]-OH; thioether N-14), the IC50 rises from 23.9 nM to 363 nM (15-fold).

First: CNC[C@@H]1NC(=O)CSC[C@@H](C(=O)N[C@@H](CCN)C(=O)NCCCCCCCCCCCC(=O)O)NC(=O)[C@H](CCCN)NC(=O)[C@H](C(C)C)NC(=O)[C@H](CC2CCCCC2)NC(=O)[C@H](CCN)NC(=O)[C@@H](CC(C)C)NC(=O)[C@H](CCCN)NC(=O)[C@H](Cc2ccc(O)cc2)NC(=O)[C@H](Cc2ccc(-c3ccccc3)cc2)NC(=O)[C@H](C(C)C)NC(=O)[C@H](Cc2cccc(C)c2)NC(=O)[C@H](CC(=O)O)NC(=O)[C@H](Cc2ccc(OCC(=O)O)cc2)NC1=O [Compound 3592] ({CH2CO}-[Dap(Me)]Y(Carboxymethyl)D[Phe(3-Me)]V[Bip]Y[Orn][dL][Dab][Cha]V[Orn]C[Dab][12Ado]-OH; thioether N-14)
Second: Cc1cccc(C[C@@H]2NC(=O)[C@H](CC(=O)O)NC(=O)[C@H](Cc3ccc(OCC(=O)O)cc3)NC(=O)[C@H](CCN)NC(=O)CSC[C@@H](C(=O)N[C@@H](CCCCN)C(=O)NCCCCCCCCCCC(=O)O)NC(=O)[C@H](CCCCN)NC(=O)[C@H](C(C)O)NC(=O)[C@H](CC3CCCCC3)NC(=O)[C@H](CCN)NC(=O)[C@@H](CC(C)C)NC(=O)[C@H](CCCN)NC(=O)[C@H](Cc3ccc(O)cc3)NC(=O)[C@H](Cc3ccc(-c4ccccc4)cc3)NC(=O)[C@H](C(C)C)NC2=O)c1 (stereo partly drawn) [Compound 3599] ({CH2CO}-[Dab]Y(Carboxymethyl)D[Phe(3-Me)]V[Bip]Y[Orn][dL][Dab][Cha][Thr(3ξ)]KCK[Aun]-OH; thioether N-14)
The IC50 of the first is 1.8-fold higher: 8.6 nM for the first, 4.9 nM for the second.

Going from `Cc1cccc(C[C@@H]2NC(=O)[C@H](CC(=O)O)NC(=O)[C@H](Cc3ccc(OCC(=O)O)cc3)NC(=O)[C@H](CN)NC(=O)CSC[C@@H](C(=O)N[C@@H](CCN)C(=O)NCCCCCCCCCCC(=O)O)NC(=O)[C@H]([C@H](C)O)NC(=O)[C@H](C(C)O)NC(=O)[C@H](CC3CCCCC3)NC(=O)[C@H](CCN)NC(=O)[C@@H](CC(C)C)NC(=O)[C@H](CCCN)NC(=O)[C@H](Cc3ccc(O)cc3)NC(=O)[C@H](Cc3ccc(-c4ccccc4)cc3)NC(=O)[C@H](Cc3ccc(OCC(=O)O)cc3)NC2=O)c1` (stereo partly drawn) [Compound 3595] ({CH2CO}-[Dap]Y(Carboxymethyl)D[Phe(3-Me)]Y(Carboxymethyl)[Bip]Y[Orn][dL][Dab][Cha][Thr(3ξ)][aThr]C[Dab][Aun]-OH; thioether N-14) to `CC(=O)Nc1ccc(C[C@@H]2NC(=O)[C@H](Cc3cccc(C)c3)NC(=O)[C@H](CC(=O)O)NC(=O)[C@H](Cc3ccc(OCC(=O)O)cc3)NC(=O)[C@H](CN)NC(=O)CSC[C@@H](C(=O)N[C@@H](CCN)C(=O)NCCCCCCCCCCC(=O)O)NC(=O)[C@H](C(C)O)NC(=O)[C@H](C(C)C)NC(=O)[C@H](CC3CCCCC3)NC(=O)[C@H](CCN)NC(=O)[C@@H](CC(C)C)NC(=O)[C@H](CCCN)NC(=O)[C@H](Cc3ccc(NC(C)=O)cc3)NC(=O)[C@H](Cc3ccc(-c4ccccc4)cc3)NC2=O)cc1` (stereo partly drawn) [Compound 3601] ({CH2CO}-[Dap]Y(Carboxymethyl)D[Phe(3-Me)][Phe(4-NH2)](Ac)[Bip][Phe(4-NH2)](Ac)[Orn][dL][Dab][Cha]V[Thr(3ξ)]C[Dab][Aun]-OH; thioether N-14), the IC50 falls from 151 nM to 38 nM (4-fold). The second is the more potent here.

Compared with `CNC[C@@H]1NC(=O)CSC[C@@H](C(=O)N[C@@H](CCN)C(=O)NCCCCCCCCCCC(=O)O)NC(=O)[C@H](CO)NC(=O)[C@H](C(C)O)NC(=O)[C@H](CC2CCCCC2)NC(=O)[C@H](CCN)NC(=O)[C@@H](CC(C)C)NC(=O)[C@H](CCCN)NC(=O)[C@H](Cc2ccc(O)cc2)NC(=O)[C@H](Cc2ccc(-c3ccccc3)cc2)NC(=O)[C@H](CCCCNC(=O)C(C)(C)C)NC(=O)[C@H](Cc2cccc(C)c2)NC(=O)[C@H](CC(=O)O)NC(=O)[C@H](Cc2ccc(OCC(=O)O)cc2)NC1=O` (stereo partly drawn) [Compound 3596] ({CH2CO}-[Dap(Me)]Y(Carboxymethyl)D[Phe(3-Me)]K(Piv)[Bip]Y[Orn][dL][Dab][Cha][Thr(3ξ)]SC[Dab][Aun]-OH; thioether N-14), `CC(=O)NCCCC[C@@H]1NC(=O)[C@H](Cc2cccc(C)c2)NC(=O)[C@H](CC(=O)O)NC(=O)[C@H](Cc2ccc(OCC(=O)O)cc2)NC(=O)[C@H](Cc2ccc(NC(C)=O)cc2)NC(=O)CSC[C@@H](C(=O)N[C@@H](CCN)C(=O)NCCCCCCCCCCC(=O)O)NC(=O)[C@H](C(C)O)NC(=O)[C@H](C(C)C)NC(=O)[C@H](CC2CCCCC2)NC(=O)[C@H](CCN)NC(=O)[C@@H](CC(C)C)NC(=O)[C@H](CCCN)NC(=O)[C@H](CCCCNC(C)=O)NC(=O)[C@H](Cc2ccc(-c3ccccc3)cc2)NC1=O` (stereo partly drawn) [Compound 3602] ({CH2CO}-[Phe(4-NH2)](Ac)Y(Carboxymethyl)D[Phe(3-Me)]K(Ac)[Bip]K(Ac)[Orn][dL][Dab][Cha]V[Thr(3ξ)]C[Dab][Aun]-OH; thioether N-14) is 7-fold lower in IC50: 162 nM for the first, 23.1 nM for the second.

First: CCCC[C@H]1C(=O)N[C@@H](Cc2ccc(OCC(=O)O)cc2)C(=O)N[C@@H](CC(=O)O)C(=O)N[C@@H](Cc2cccc(C)c2)C(=O)N[C@@H](Cc2ccc(OCC(=O)O)cc2)C(=O)N[C@@H](Cc2ccc(-c3ccccc3)cc2)C(=O)N[C@@H](Cc2ccc(OCC(=O)O)cc2)C(=O)N[C@@H](CCCN)C(=O)N[C@H](CC(C)C)C(=O)N[C@@H](CCN)C(=O)N[C@@H](CC2CCCCC2)C(=O)N[C@@H](C(C)C)C(=O)N[C@@H](CO)C(=O)N[C@H](C(=O)N[C@@H](CCN)C(=O)NCCCCCCCCCCC(=O)O)CSCC(=O)N1C [Compound 3598] ({CH2CO}-[NMeNle]Y(Carboxymethyl)D[Phe(3-Me)]Y(Carboxymethyl)[Bip]Y(Carboxymethyl)[Orn][dL][Dab][Cha]VSC[Dab][Aun]-OH; thioether N-14)
Second: Cc1cccc(C[C@@H]2NC(=O)[C@H](CC(=O)O)NC(=O)[C@H](Cc3ccc(OCC(=O)O)cc3)NC(=O)[C@H](Cc3ccc(C(N)=O)cc3)NC(=O)CSC[C@@H](C(=O)N[C@@H](CCCCN)C(=O)NCCCCCCCCCCC(=O)O)NC(=O)[C@H](CCCCN)NC(=O)[C@H](C(C)O)NC(=O)[C@H](CC3CCCCC3)NC(=O)[C@H](CCN)NC(=O)[C@@H](CC(C)C)NC(=O)[C@H](CCCN)NC(=O)[C@H](Cc3ccc(O)cc3)NC(=O)[C@H](Cc3ccc(-c4ccccc4)cc3)NC(=O)[C@H](C(C)C)NC2=O)c1 (stereo partly drawn) [Compound 3600] ({CH2CO}-[Phe(4-CONH2)]Y(Carboxymethyl)D[Phe(3-Me)]V[Bip]Y[Orn][dL][Dab][Cha][Thr(3ξ)]KCK[Aun]-OH; thioether N-14)
The IC50 of the first is 2.9-fold lower: 13.8 nM for the first, 40.1 nM for the second. The first is the more potent here.

With `Cc1cccc(C[C@@H]2NC(=O)[C@H](CC(=O)O)NC(=O)[C@H](Cc3ccc(OCC(=O)O)cc3)NC(=O)[C@H](CCN)NC(=O)CSC[C@@H](C(=O)N[C@@H](CCN)C(=O)NCCCCCCCCCCC(=O)O)NC(=O)[C@H](CO)NC(=O)[C@H](C(C)(C)O)NC(=O)[C@H](CC3CCCCC3)NC(=O)[C@H](CCN)NC(=O)[C@@H](CC(C)C)NC(=O)[C@H](CCCN)NC(=O)[C@H](Cc3ccc(O)cc3)NC(=O)[C@H](Cc3ccc(-c4ccccc4)cc3)NC(=O)[C@H](Cc3ccc(C(N)=O)cc3)NC2=O)c1` [Compound 3603] ({CH2CO}-[Dab]Y(Carboxymethyl)D[Phe(3-Me)][Phe(4-CONH2)][Bip]Y[Orn][dL][Dab][Cha][Val(3-OH)]SC[Dab][Aun]-OH; thioether N-14) the IC50 was 9.2 nM.
